# Test results: patent publication EP1463487B1, “LIPOSOMAL DELIVERY OF VITAMIN E BASED COMPOUNDS” (RESEARCH DEVELOPMENT FOUNDATION, priority 2001, dated 2003)
# “Also recorded” adds a separate entry of the source.
# Key:
# [1] = Body weight and long term safety of α-TEA treated mice; format: in vivo, Balb/c mice
# Description: (§2) 50 mice were assigned (10 per group) to aerosol treatment, aerosol control, oral treatment, oral control, or to the no treatment group so that the average tumor volume for all groups were closely matched. […] Tumors were measured using calipers every other day, and volumes were calculated using the formula: volume (mm^3) = [width (mm)^2 X length (mm)] /2. Body weights were determined weekly.
# Balb/c mice, 10/group (4 groups, 40 mice total) are inoculated with 200,000 66 cl.4 GFP cells as described on day 0. Nine days after tumor inoculation, treatments groups are initiated: Aerosol Treatment (TX) = aerosol delivery of α-TEA liposome (5 mg/mouse)/daily through day 23. Aerosol Control = Aerosol delivery of liposome composition only daily through day 23. Gavage treatment = gavage administration of α-TEA at 5 mg/mouse in ethanol/peanut oil daily through day 23. Gavage control = gavage administration of ethanol/peanut oil only through day 23. Mice were weighed at the initiation of treatment (day 9) and thereafter on days 13, 16, 20, and 23 (Fig. 6). Data are presented as the mean +/- standard deviation.
# 66 cl.4-GFP cells [2] = test: Tumor growth of 66 cl.4-GFP mammary tumor cells implanted in Balb/c mice; settings: for mean tumor volume reduced in comparison to aerosol control: liposomal α-TEA/aerosol daily
# Description: 66 cl.4-GFP cells were harvested by trypsinization, centrifuged, resuspended in McCoy's media, containing no supplements at a density of 2 X 10^5/100µl. Mice were injected in the inguinal area at a point equal distance between the 4th and 5th nipples on the right side using a 23 gauge needle.
# as §2
# Balb/c mice were injected with 200,000 66 cl.4 GFP cells subcutaneous in the mammary fat pad area between the 4th and 5th nipple on the right side of the body.
# Mice are injected with 200,000 66cl.4 GFP murine mammary tumor cells as described on day 0. Treatments are initiated on day 9 when tumors reached 1-3 mm in size. […] Data represent the mean +/- Standard Error (SE), N = 10 mice for control and treatment groups.
# Balb/c mice were injected s. c. with 2 X 10^5 66 cl.4-GFP cells in the inguinal area between the 4th and 5th nipple on the right side of the body. When tumors reached 2 x 2-4 x 4 mm (9 days after tumor injection), mice were placed into 5 groups ((Group 1: untreated control, Group 2: liposome/aerosol control, Group 3: liposomal α-TEA aerosol treatment, Group 4: peanut oil/gavage control, Group 5: α-TEA in peanut oil/gavage treatment) of 10 mice/group) such that the mean tumor volume of each group was closely matched. Daily treatments were initiated on day 9 after tumor injection.
# Balb/c mice were injected with 200,000 66 cl.4 GFP cells subcutaneous in the mammary fat pad area between the 4th and 5th nipple on the right side of the body. […] Animals were treated with α-TEA in liposome, vitamin E succinate in liposome, or control liposome alone via aerosol, 7 days per week, for 21 days. Animals were given 75 mg compound via nebulization per day such that each animal received 36 µg compound per day.
# The size of the tumors, 9 - 21 days after injection of 200,000 66 cl.4 GFP cells between the 4th and 5th nipple on the right side of each mouse, is determined. Treatments are initiated on day 9 after tumor inoculation. Each group consists of n=10 +/- SE. Gavage Treatment = Treatments of 5 mg of α-TEA in ethanol and peanut oil (0.1 ml volume) are administered daily starting on day 9 after tumor inoculation and continuing through day 21. Gavage Control = Mice received peanut oil and ethanol alone (0.ml volume)/daily, starting on day 9 after tumor inoculation and continuing through day 21. Data (tumor size) are depicted as the mean +/- standard error for days 9, 11, 13, 15, 17, 19, and 21.
# Balb/c mice were injected with 200,000 66 cl.4 GFP cells subcutaneous in the mammary fat pad area between the 4th and 5th nipple on the right side of the body. […] Animals were treated with α-TEA in liposome, vitamin E succinate in liposome, or control liposome alone via oral gavage, 2 times per day, 7 days per week, for 21 days. Animals were given a total of 6 mg compound per day.
# MDA-MB-435 GFP FL cells = test: Tumor growth of MDA-MB-435 GFP FL breast cancer cells in nude mice; format: in vivo, Nu/Nu athymic nude mice; settings: liposome gavage, 8 mg compound per day, 2 times per day; day 27
# Description: Animals were given a total of 8 mg compound per day. […] Alpha-TEA liposome gavage reduced tumor growth by 68, 75, 78, 79 and 79% on days 27, 29, 31, 33, and 35, respectively (Fig. 15).
# Animals were gavaged 3ppm methylselenocysteine (MSC) in water, α-TEA in liposome via aerosol, or gavaged 10 mg/kg b.w. trans-resveratrol (t-RES) in first 1:1, EtOH: physiological saline, and starting at day 24, 6.5% EtOH and 93.5% Neobee oil. A combination group was treated with each of the above three compounds, and a control group was treated with aerosolized liposome, 100 µl water, and 50 µl of the t-Res solvent. Animals were treated seven days a week, for 35+ days.
# [3] = test system: A2780 cisplatin-sensitive cell line; test: Apoptosis of A2780 ovarian cancer cells in culture; format: cell-based, human; settings: treated in culture with α-TEA
# 66 cl.4-GFP cells [4] = test: Fluorescent lymph node micrometastases of 66 cl.4-GFP tumors in Balb/c mice; format: in vivo
# Text: (§1) Metastastic lesions in the five lung lobes were counted visually at time of sacrifice. Fluorescent green micro-metastatic cancer cell colonies in the left lung lobe and lymph nodes were counted using a Nikon fluorescence microscope (TE-200) with a 20 x objective (200 x magnification) and Image-Pro Plus (version 4.1; Media Cybernetics, Silver Spring, MD) software associated with the microscope. Fluorescent lesions were separated into three size grouping: <5 µm , 5-10 µm and >10 µm.
# At sacrifice, the left lung lobe of each mouse of flash frozen and saves for detection of GFP expressing micrometatstic lesions via fluorescent microscopy.
# [5] = test system: Poly (ADP-Ribose) Polymerase (PARP); test: Western immunoblot detection of PARP cleavage fragment; format: cell-based, mouse; settings: 48 hours
# Description: Poly (ADP-Ribose) Polymerase cleavage was analyzed as an alternate method for detecting apoptosis. 66 cl.4-GFP cells were treated as described above for the DAPI assay. Following the PBS wash, cells were suspended in lysis buffer (1X PBS, 1% Nonidet P-40, 0.5% sodium deoxycholate, 0.1% sodium dodecyl sulfate (SDS), 1 µg/ml leupeptin, 1 µg/ml aprotinin, 1mM dithiothreitol (DTT), 2 mM sodium orthovanadate, 10 µg/ml phenylmethylsulfonyl fluoride (PMSF)) for 30 min at 4°C, vortexed, and supernatants collected by centrifugation at 15,000 X g for 20 min. Protein concentrations were determined using the Bio-Rad (Bradford) protein assay (Bio-Rad Laboratories, Hercules, CA), and samples (100 µg/lane) resolved on 7.5% SDS-polyacrylamide gels electrophoresed under reducing conditions.
# Proteins were electroblotted onto a nitrocellulose membrane (0.2 µM pore Optitran BA-S-supported nitrocellulose; Schleicher and Schuell, Keene, NH). After transfer, membranes were blocked with blocking buffer [25 mM Tris-HCl (pH 8.0), 125 mM NaCl, 0.5% Tween-20, and 5% non-fat dry milk] for 45 min at room temperature. Immunoblotting was performed using 1 µg of primary rabbit anti-human Poly (ADP-Ribose) Polymerase antibody [PARP (H-250), Santa Cruz Biotechnology, Santa Cruz, CA], and horseradish peroxidase-conjugated goat anti-rabbit immunoglobulin was used as the secondary antibody (Jackson Immunoresearch Laboratory, West Grove, PA) at a 1:3,000 dilution. Horseradish peroxidase-labeled bands from washed blots were detected by enhanced chemiluminescence (Pierce, Rockford, IL) and autoradiography (Kodak BioMax film; Rochester, NY).
# 66 cl.4-GFP cells [6] = test: Visible lung metastases of 66 cl.4-GFP tumors in Balb/c mice; format: in vivo; settings: daily aerosol for 17 days; counted visually at sacrifice
# Text: as §1
# [7] = Serum and tissue levels of α-TEA after liposomal aerosol treatment (HPLC); format: in vivo, balb/c mice; settings: aerosol 5 mg/mouse over 30 minutes
# Description: Tumors were removed during necropsy and half of each tumor was quick frozen in liquid nitrogen then stored at -70°C until HPLC analyses were performed. Tumors were processed for HPLC analyses by homogenization and hexane extraction of lipids. Briefly, weighed tumors were placed in 5 ml disposable conical-bottom tubes (Sarstedt, Newton, NC) along with 5-7 Kimble solid glass beads (4mm), 1 ml 1% SDS in water, 1-2 ml 100% ethanol and 1 ml hexane. Samples were then mixed using a Crescent Wig-L-Bug (model 3110B Densply International, Elgin, IL) twice for 1 min each. Samples were then centrifuged for 5 min at 1,000 rpm, and the organic layer collected, the aqueous layer was mixed with hexane again, vortexed, centrifuged, and processed twice more before the organic layer was dried down under nitrogen. Samples were run immediately. Reverse phase HPLC analyses with fluorometric detection of the tocopherol ether analog were conducted as described by Tirmenstein, M.A., et al. (23).
# Eight mice are treated via pulmonary aerosol delivery with 40mg of α-TEA (5 mg/mouse) in 6 ml liposomes. The mice inhaled the aerosol over a period of 30 minutes until delivery was complete. Mice are sacrificed 0, 2, 6, or 24 hours after the treatment ended. Serum and tissue levels of α-TEA are determined by HPLC analyses (Fig. 7).
# 66 cl.4-GFP cells [8] = test: Colony-forming assay; format: cell-based, mouse; settings: 10 days
# Description: 66 cl.4-GFP cells were seeded at 600 cells per 35 X 1 0 mm tissue culture plate (Nunclon, Rochester, NY) and allowed to adhere over night at 37° C. […] Treatments were left on the cells for 10 days without change of media. After 10 days, media were removed and plates were washed with PBS three times. Cells were stained for 30 min with 1% methylene blue in PBS and colonies > 0.5 mm manually counted.
# [9] = Aerosol, in nebulizer per mouse: α-TEA 5 mg/d, 9NC 2 µg/d, combination 5 mg+2µg/d
structure (smiles),measurement,setting,value
"Cc1c(C)c2c(c(C)c1OCC(=O)O)CC[C@@](C)(CCC[C@H](C)CCC[C@H](C)CCCC(C)C)O2 [α-TEA, 2,5,7,8-tetramethyl-(2R-(4R,8R,12-trimethyltridecyl)chroman-6-yloxy) acetic acid]",long term adverse effects,"[1]; non-tumor bearing mice treated by aerosol or gavage for 17 days, kept eleven months",did not show any adverse effects
same,body weight,"[1]; tumor bearing mice, α-TEA liposome aerosol or gavage in ethanol/peanut oil, 5 mg/mouse daily, versus controls",no significant weight differences; also recorded: No differences in mean body weights
same,tumor size at the inoculation site versus gavage control,66 cl.4-GFP cells [2]; 5 mg/day/mouse α-TEA in ethanol and peanut oil by gavage,no significant differences in tumor weights; also recorded: did not differ
same,Inhibition (%) Tumor Growth,66 cl.4-GFP cells [2]; [9],65%
same,Inhibition (%) Tumor Growth,"66 cl.4-GFP cells [2]; EtOH/P Oil, Gavage, 5 mg/d",0%
same,Inhibition (%) Tumor Growth,"66 cl.4-GFP cells [2]; Liposomal, Aerosol, 5 mg/d",70%
same,Inhibition (%) Tumor Growth,"66 cl.4-GFP cells [2]; Liposomal, Gavage, 3 mg/2Xd",70%
same,size of tumors less than aerosol only control group,"66 cl.4-GFP cells [2]; aerosol α-TEA liposomes 5 mg/mouse daily, sacrifice day 25, 16 days after treatment initiation",61%
same,mean tumor volume reduced in comparison to aerosol control,66 cl.4-GFP cells [2]; day 9 of treatment,23%
same,mean tumor volume reduced in comparison to aerosol control,66 cl.4-GFP cells [2]; day 11 of treatment,41%
same,mean tumor volume reduced in comparison to aerosol control,66 cl.4-GFP cells [2]; day 13 of treatment,50%
same,mean tumor volume reduced in comparison to aerosol control,66 cl.4-GFP cells [2]; day 15 of treatment,67%
same,mean tumor volume reduced in comparison to aerosol control,66 cl.4-GFP cells [2]; day 17 of treatment,61%
same,reduced tumor growth,"66 cl.4-GFP cells [2]; liposome aerosol, 36 µg compound per day, 21 days, day 15",64%
same,reduced tumor growth,"66 cl.4-GFP cells [2]; liposome aerosol, 36 µg compound per day, 21 days, day 17",76%
same,reduced tumor growth,"66 cl.4-GFP cells [2]; liposome aerosol, 36 µg compound per day, 21 days, day 19",69%
same,reduced tumor growth,"66 cl.4-GFP cells [2]; liposome aerosol, 36 µg compound per day, 21 days, day 21",67%
same,reduced tumor growth,"66 cl.4-GFP cells [2]; liposome gavage, 6 mg compound per day, 2 times per day, day 15",85%
same,reduced tumor growth,"66 cl.4-GFP cells [2]; liposome gavage, 6 mg compound per day, 2 times per day, day 17",85%
same,reduced tumor growth,"66 cl.4-GFP cells [2]; liposome gavage, 6 mg compound per day, 2 times per day, day 19",80%
same,reduced tumor growth,"66 cl.4-GFP cells [2]; liposome gavage, 6 mg compound per day, 2 times per day, day 21",70%
same,reduced tumor growth,MDA-MB-435 GFP FL cells,68%
same,apoptosis,[3],undergo apoptosis
same,Inhibition (%) Metastases Lymphnode,66 cl.4-GFP cells [4]; [9],94%
same,Inhibition (%) Metastases Lymphnode,"66 cl.4-GFP cells [4]; Liposomal, Aerosol, 5 mg/d",94%
same,Inhibition (%) Metastases Lymphnode,"66 cl.4-GFP cells [4]; Liposomal, Gavage, 3 mg/2Xd",56%
same,average micrometastatic lesions in lymph nodes,"66 cl.4-GFP cells [4]; liposome via gavage, 6 mg compound per day, 21 days",3.1 ±0.8
same,84 kDa cleavage fragment of PARP,[5]; 5 µg/ml,only intact PARP protein was detected
same,84 kDa cleavage fragment of PARP,[5]; 10 µg/ml,evident
same,84 kDa cleavage fragment of PARP,[5]; 20 µg/ml,evident
same,No. Visible Lung Tumor Foci/Animal,66 cl.4-GFP cells [6],No visible tumors were seen
same,serum and tissue levels of α-TEA,[7]; 0 hours after treatment ended,found only in the stomach tissue
same,serum and tissue levels of α-TEA,[7]; 2 hours after treatment ended,present in the serum and stomach
same,serum and tissue levels of α-TEA,[7]; 6 hours after treatment ended,present in the liver and stomach
same,serum and tissue levels of α-TEA,[7]; 24 hours after treatment ended,present in the liver and stomach
same,colonies (average ± S. D.),66 cl.4-GFP cells [8]; 1.25 µg/ml,98 ± 20 colonies
same,colonies (average ± S. D.),66 cl.4-GFP cells [8]; 2.5 µg/ml,21 ± 6 colonies
same,colonies,66 cl.4-GFP cells [8]; 5 µg/ml,No colonies formed
same,colonies,66 cl.4-GFP cells [8]; 10 µg/ml,No colonies formed
same,inhibition at 1.25 µg/mL,"66 cl.4-GFP cells [8]; Mus musculus, 240 h, 1.25 µg/ml, compared to EtOH control, read-out: decreased colony formation",30%
same,inhibition at 2.5 µg/mL,"66 cl.4-GFP cells [8]; Mus musculus, 240 h, 2.5 µg/ml, compared to EtOH control, read-out: decreased colony formation",85%
same,inhibition at 5 µg/mL,"66 cl.4-GFP cells [8]; Mus musculus, 240 h, 5 µg/ml, compared to EtOH control, read-out: decreased colony formation",100%
